Patent publication US8716480B2, “7-aryl-1,2,4-triazolo[4,3-a]pyridine derivatives and their use as positive allosteric modulators of mGluR2 receptors” (Janssen Pharmaceuticals, Inc., priority 2009, dated 2014)

Test system: not given
Assay: not given
Conditions: not given

Work on Clc1cc(-c2ccn3c(CC4CC4)nnc3c2Cl)ccc1NC1CC1 [Co. No. 6] yielded a melting point of over 300 °C.

Point of comparison: Clc1c(-c2ccc(Oc3ccccc3)cc2)ccn2c(CC3CC3)nnc12 [Co. No. 8, 8-Chloro-3-cyclopropylmethyl-7-(4-phenoxy-phenyl)-1,2,4-triazolo[4,3-a]pyridine], melting point 156.7 °C. Against it:
- FC(F)(F)c1c(-c2ccc(OC3CCOCC3)c(Cl)c2)ccn2c(CC3CC3)nnc12 [Co. No. 9, 8-Trifluoromethyl-7-[3-chloro-4-(tetrahydro-pyran-4-yloxy)-phenyl]-3-cyclopropylmethyl-[1,2,4]triazolo[4,3-a]pyridine] — higher, 176.9 °C
- FC(F)(F)c1c(-c2ccc(NC3CCOCC3)c(Cl)c2)ccn2c(CC3CC3)nnc12 [Co. No. 10, 8-Trifluoromethyl-7-[3-chloro-4-(tetrahydro-pyran-4-ylamino)-phenyl]-3-cyclopropylmethyl-[1,2,4]triazolo[4,3-a]pyridine] — higher, 198.4 °C
- O[C@H]1CC[C@H](Nc2ccc(-c3ccn4c(CC5CC5)nnc4c3Cl)cc2Cl)CC1 [Co. No. 12, 8-Cloro-7-[3-chloro-4-(4-hydroxy-cyclohexylamino)-phenyl]-3-cyclopropylmethyl-[1,2,4]triazolo[4,3-a]pyridine] — higher, 273.7 °C
- CCOCc1nnc2c(C(F)(F)F)c(-c3ccc(Oc4ccnc(C)c4)c(F)c3)ccn12 [Co. No. 36, 3-Ethoxymethyl-7-[3-fluoro-4-(2-methyl-pyridin-4-yloxy)-phenyl]-8-trifluoromethyl-[1,2,4]triazolo[4,3-a]pyridine] — higher, 171.2 °C
- CC(C)Nc1ccc(-c2ccn3c(CC4CC4)nnc3c2C(F)(F)F)cc1F [Co. No. 49, 3-Cyclopropylmethyl-7-[3-fluoro-4-(isopropylamino)-phenyl]-8-trifluoromethyl-[1,2,4]triazolo[4,3-a]pyridine] — higher, 196.9 °C

Target: T1, human mGluR2 receptor (Homo sapiens, UniProt Q14416)
T1 construct: expressed in transfected cells; host or cells: CHO cells (membranes)
Assay: [35S]GTPγS binding assay (PAM)
Format: biochemical
Conditions: in presence of glutamate at predetermined EC20; membranes from CHO cells transfected with human mGluR2
Procedure: [^35S]GTPγS binding assay
The [^35S]GTPγS binding assay is a functional membrane-based assay used to study G-protein coupled receptor (GPCR) function whereby incorporation of a non-hydrolysable form of GTP, [^35S]GTPγS (guanosine 5′-triphosphate, labelled with […] ^35S), is measured.
CHO-cells were cultured to pre-confluence and stimulated with 5 mM butyrate for 24 h, prior to washing in PBS, and then collected by scraping in homogenisation buffer (50 mM Tris-HCl buffer, pH 7.4, 4° C.). Cell lysates were homogenized briefly using an ultra-turrax homogenizer. The homogenate was centrifuged at 16,000 RPM (Sorvall RC-5C plus rotor SS-34) for 10 minutes and the supernatant discarded. The pellet was resuspended in 5 mM Tris-HCl, pH 7.4 and centrifuged again (18,000 RPM, 20 min, 4° C.). The final pellet was resuspended in 50 mM Tris-HCl, pH 7.4 and stored at −80° C. in appropriate aliquots before use. Protein concentration was determined by the Bradford method (Bio-Rad, USA) with bovine serum albumin as standard.
Measurement of mGluR2 positive allosteric modulatory activity of test compounds was performed as follows. Test compounds and glutamate were diluted in assay buffer containing 10 mM HEPES acid, 10 mM HEPES salt, pH 7.4, 100 mM NaCl, 3 mM MgCl2 and 10 μM GDP. Human mGlu2 receptor-containing membranes were thawed on ice and diluted in assay buffer supplemented with 14 μg/ml saponin. Membranes were pre-incubated with compound alone or together with a predefined (˜EC20) concentration of glutamate (PAM assay) for 30 min at 30° C. After addition of [^35S]GTPγS (f.c. 0.1 nM) microplates were shaken briefly and further incubated to allow [^35S]GTPγS incorporation on activation (30 minutes, 30° C.). Final assay mixtures contained 7 μg of membrane protein in 10 mM HEPES acid, 10 mM HEPES salt, pH 7.4, 100 mM NaCl, 3 mM MgCl2, 10 μM GDP and 10 μg/ml saponin. Total reaction volume was […] Reactions were terminated by rapid filtration through Unifilter-96 GF/B filter plates (Packard, Meriden, Conn.) using a 96-well Packard filtermate harvester. Filters were washed 6 times with ice-cold 10 mM NaH2PO4/10 mM Na2HPO4, pH 7.4. Filters were then air-dried, and 40 μl of liquid scintillation cocktail (Microscint-O) was added to each well. Membrane-bound radioactivity was counted in a Microplate Scintillation and Luminescence Counter from Packard.
obtained in the presence of EC20 of mGluR2 agonist glutamate to determine positive allosteric modulation (PAM)—were generated using the Lexis software interface (developed at J&J). Data were calculated as % of the control glutamate response, defined as the maximal response that is generated upon addition of glutamate alone. Sigmoid concentration-response curves plotting these percentages versus the log concentration of the test compound were analyzed using non-linear regression analysis. The concentration producing half-maximal effect is then calculated as EC50.
All compounds were tested in presence of mGluR2 agonist, glutamate at a predetermined EC20 concentration, to determine positive allosteric modulation (GTPγS-PAM). pEC50 values were calculated from a concentration-response experiment of at least 10 concentrations.

T1 sequence (Q14416 19-872): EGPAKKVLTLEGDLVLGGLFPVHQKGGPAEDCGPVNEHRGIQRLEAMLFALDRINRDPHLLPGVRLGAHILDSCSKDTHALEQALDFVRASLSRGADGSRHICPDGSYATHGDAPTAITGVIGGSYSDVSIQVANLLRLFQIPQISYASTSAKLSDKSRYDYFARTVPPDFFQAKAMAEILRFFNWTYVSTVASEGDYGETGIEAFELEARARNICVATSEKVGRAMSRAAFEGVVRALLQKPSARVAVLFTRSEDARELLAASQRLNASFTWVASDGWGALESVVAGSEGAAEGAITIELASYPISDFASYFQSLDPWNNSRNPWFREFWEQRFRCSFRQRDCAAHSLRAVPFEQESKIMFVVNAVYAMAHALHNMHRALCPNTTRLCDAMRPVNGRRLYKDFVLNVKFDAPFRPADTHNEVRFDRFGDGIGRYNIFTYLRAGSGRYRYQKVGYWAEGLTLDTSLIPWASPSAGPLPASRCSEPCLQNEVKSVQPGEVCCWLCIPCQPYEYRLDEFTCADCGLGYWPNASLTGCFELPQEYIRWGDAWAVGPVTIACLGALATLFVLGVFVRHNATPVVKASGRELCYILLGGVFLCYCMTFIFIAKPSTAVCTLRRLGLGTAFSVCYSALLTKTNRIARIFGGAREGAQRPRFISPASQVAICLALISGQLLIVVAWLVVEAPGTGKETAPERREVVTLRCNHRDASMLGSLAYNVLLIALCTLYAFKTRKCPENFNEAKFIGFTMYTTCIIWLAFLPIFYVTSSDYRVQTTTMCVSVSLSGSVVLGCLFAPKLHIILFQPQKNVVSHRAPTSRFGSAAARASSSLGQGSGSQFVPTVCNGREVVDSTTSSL

Point of comparison: CC(C)Nc1ccc(-c2ccn3c(CC4CC4)nnc3c2Cl)cc1Cl [Co. No. 51], “GTPγS -hR2 PAM pEC50” value 7.13. Against it:
- Clc1c(-c2ccc(Oc3ccccc3)cc2)ccn2c(C3CCC3)nnc12 [Co. No. 17] — lower, 6.88
- FC(F)(F)C1CCN(Cc2ccc(-c3ccn4c(CC5CC5)nnc4c3Cl)cc2)CC1 [Co. No. 19] — lower, 6.13
- O[C@H]1CC[C@H](Nc2ccc(-c3ccn4c(CC5CC5)nnc4c3Cl)cc2Cl)CC1 [Co. No. 21] — within 0.2 log units, 7.11
- Clc1cc(-c2ccn3c(CC4CC4)nnc3c2Cl)ccc1OC1CCOCC1 [Co. No. 23] — lower, 6.53
- Fc1cc(-c2ccn3c(CC4CC4)nnc3c2Cl)ccc1NC1CC1 [Co. No. 25] — within 0.2 log units, 7.20
- O[C@H]1CC[C@@H](Oc2ccc(-c3ccn4c(CC(F)(F)F)nnc4c3Cl)cc2Cl)CC1 [Co. No. 26] — within 0.2 log units, 7.01
- O[C@H]1CC[C@H](Oc2ccc(-c3ccn4c(CC(F)(F)F)nnc4c3Cl)cc2Cl)CC1 [Co. No. 27] — lower, 6.80
- Clc1c(-c2ccccc2)ccn2c(CN3CCOc4ccccc4C3)nnc12 [Co. No. 28] — lower, 6.05
- O[C@H]1CC[C@H](Nc2ccc(-c3ccn4c(CC(F)(F)F)nnc4c3Cl)cc2Cl)CC1 [Co. No. 29] — higher, 7.40
- FC(F)(F)Cc1nnc2c(Cl)c(-c3ccc(NC4CCOCC4)c(Cl)c3)ccn12 [Co. No. 30] — lower, 6.66
- FC(F)(F)c1c(-c2ccc(NC3CC3)c(Cl)c2)ccn2c(CC3CC3)nnc12 [Co. No. 31] — higher, 8.15
- CCOCc1nnc2c(Cl)c(-c3ccc(Oc4ccc(C)nc4C)c(F)c3)ccn12 [Co. No. 33] — the same, 7.13
- CCOCc1nnc2c(C(F)(F)F)c(-c3ccc(Oc4cc(C)nc(C)c4)c(F)c3)ccn12 [Co. No. 37] — lower, 6.63
- Cc1cc(Oc2ccc(-c3ccn4c(CC5CC5)nnc4c3C(F)(F)F)cc2F)cc(C)n1 [Co. No. 38] — within 0.2 log units, 7.16
- Cc1cc(Oc2ccc(-c3ccn4c(CC(F)(F)F)nnc4c3Cl)cc2Cl)ccn1 [Co. No. 40] — lower, 6.78
- Cc1cc(Oc2ccc(-c3ccn4c(CCC5CC5)nnc4c3Cl)cc2F)ccn1 [Co. No. 41] — lower, 6.54
- CCOCc1nnc2c(C(F)(F)F)c(-c3ccc(Oc4ccc(C)nc4C)c(F)c3)ccn12 [Co. No. 44] — higher, 7.51
- O[C@]1(C2CC2)CC[C@H](Nc2ccc(-c3ccn4c(CC5CC5)nnc4c3C(F)(F)F)cc2Cl)CC1 [Co. No. 47] — higher, 8.79
- CC(C)Nc1ccc(-c2ccn3c(CC4CC4)nnc3c2Cl)cc1F [Co. No. 50] — lower, 6.65
- CC(C)Nc1ccc(-c2ccn3c(CC4CC4)nnc3c2C(F)(F)F)cc1Cl [Co. No. 52] — higher, 7.77
- Cc1ccc(Oc2ccc(-c3ccn4c(CC5CC5)nnc4c3C(F)(F)F)cc2Cl)c(C)n1 [Co. No. 53] — higher, 8.79
- Cc1ccc(Oc2ccc(-c3ccn4c(CC(F)(F)F)nnc4c3Cl)cc2Cl)c(C)n1 [Co. No. 55] — higher, 8.00
- COc1ccc(CNc2ccc(-c3ccn4c(CC5CC5)nnc4c3Cl)cc2)cn1 [Co. No. 59] — within 0.2 log units, 7.15
- Cc1ccc(Oc2ccc(-c3ccn4c(CC5CC5)nnc4c3C)cc2Cl)c(C)n1 [Co. No. 61] — higher, 7.70
- CCOCc1nnc2c(C)c(-c3ccc(Oc4ccc(C)nc4C)c(Cl)c3)ccn12 [Co. No. 65] — within 0.2 log units, 7.26
- CC(C)Nc1ccc(-c2ccn3c(CC4CC4)nnc3c2Cl)cn1 [Co. No. 66] — lower, 6.51
- Clc1c(-c2ccc(N3CCOCC3)nc2)ccn2c(CC3CC3)nnc12 [Co. No. 67] — lower, 5.61
- FC(F)(F)c1c(-c2ccc(N3CCOCC3)nc2)ccn2c(CC3CC3)nnc12 [Co. No. 68] — lower, 5.90
- Clc1c(-c2ccc(N3CCCCC3)nc2)ccn2c(CC3CC3)nnc12 [Co. No. 69] — lower, 6.53
- FC(F)(F)c1c(-c2ccc(N3CCCCC3)nc2)ccn2c(CC3CC3)nnc12 [Co. No. 70] — lower, 6.67
- FC(F)(F)c1c(-c2ccc(CN3CCOCC3)c(Cl)c2)ccn2c(CC3CC3)nnc12 [Co. No. 71] — within 0.2 log units, 7.02
- CC1(O)CCN(Cc2ccc(-c3ccn4c(CC5CC5)nnc4c3C(F)(F)F)cc2Cl)CC1 [Co. No. 72] — lower, 6.49
- FC(F)(F)c1c(-c2ccc(CNC3CCOCC3)c(Cl)c2)ccn2c(CC3CC3)nnc12 [Co. No. 74] — lower, 6.21
- Cc1ccc(CNc2ccc(-c3ccn4c(CC5CC5)nnc4c3C(F)(F)F)cc2F)cn1 [Co. No. 78] — higher, 7.98

Same assay, conditions: in presence of glutamate at predetermined EC20; membranes from CHO cells transfected with human mGluR2; read-out: GTPγS -hR2 PAM pEC50 (converted)

Point of comparison: CCOCc1nnc2c(C(F)(F)F)c(-c3ccc(Oc4ccnc(C)c4)c(F)c3)ccn12 [Co. No. 36, 3-Ethoxymethyl-7-[3-fluoro-4-(2-methyl-pyridin-4-yloxy)-phenyl]-8-trifluoromethyl-[1,2,4]triazolo[4,3-a]pyridine], EC50 219 nM. Against it:
- OC1CCC(Nc2ccc(-c3ccn4c(CC5CC5)nnc4c3Cl)cc2Cl)CC1 (single isomer, unassigned) [Co. No. 13-a, 7-[3-Chloro-4-(4-hydroxy-cyclohexylamino)-phenyl]-8-chloro-3-cyclopropylmethyl-[1,2,4]triazolo[4,3-a]pyridine] — 9.6-fold lower, 22.9 nM
- Clc1c(-c2ccccc2)ccn2c(CN3CCC(c4ccccc4)CC3)nnc12 [Co. No. 5] — within 1.5-fold, 191 nM
- Clc1cc(-c2ccn3c(CC4CC4)nnc3c2Cl)ccc1NC1CC1 [Co. No. 6] — 6-fold lower, 36.3 nM
- FC(F)(F)c1c(-c2ccc(OC3CCOCC3)c(Cl)c2)ccn2c(CC3CC3)nnc12 [Co. No. 9, 8-Trifluoromethyl-7-[3-chloro-4-(tetrahydro-pyran-4-yloxy)-phenyl]-3-cyclopropylmethyl-[1,2,4]triazolo[4,3-a]pyridine] — 5.4-fold lower, 40.7 nM
- FC(F)(F)c1c(-c2ccc(NC3CCOCC3)c(Cl)c2)ccn2c(CC3CC3)nnc12 [Co. No. 10, 8-Trifluoromethyl-7-[3-chloro-4-(tetrahydro-pyran-4-ylamino)-phenyl]-3-cyclopropylmethyl-[1,2,4]triazolo[4,3-a]pyridine] — 13-fold lower, 17 nM
- O[C@H]1CC[C@H](Nc2ccc(-c3ccn4c(CC5CC5)nnc4c3Cl)cc2Cl)CC1 [Co. No. 12, 8-Cloro-7-[3-chloro-4-(4-hydroxy-cyclohexylamino)-phenyl]-3-cyclopropylmethyl-[1,2,4]triazolo[4,3-a]pyridine] — 5.3-fold lower, 41.7 nM
- CC(C)Nc1ccc(-c2ccn3c(CC4CC4)nnc3c2C(F)(F)F)cc1F [Co. No. 49, 3-Cyclopropylmethyl-7-[3-fluoro-4-(isopropylamino)-phenyl]-8-trifluoromethyl-[1,2,4]triazolo[4,3-a]pyridine] — 3.6-fold lower, 60.3 nM
